Where two headings read alike, the source gives them in different places.
Biological target: BRAF V600E (Homo sapiens, UniProt P15056, V600E)
Test: HiBiT cellular BRAF^V600E degradation assay
Format: cell-based
Conditions: for DC50: concentration at which 50% of total cellular BRAF^V600E is degraded; for Emax: read-out: HiBit 24 h Emax
[1] = A375.10 cells, 24 h, residual protein remaining in the cell

Sequence of BRAF V600E (P15056 whole entry V600E): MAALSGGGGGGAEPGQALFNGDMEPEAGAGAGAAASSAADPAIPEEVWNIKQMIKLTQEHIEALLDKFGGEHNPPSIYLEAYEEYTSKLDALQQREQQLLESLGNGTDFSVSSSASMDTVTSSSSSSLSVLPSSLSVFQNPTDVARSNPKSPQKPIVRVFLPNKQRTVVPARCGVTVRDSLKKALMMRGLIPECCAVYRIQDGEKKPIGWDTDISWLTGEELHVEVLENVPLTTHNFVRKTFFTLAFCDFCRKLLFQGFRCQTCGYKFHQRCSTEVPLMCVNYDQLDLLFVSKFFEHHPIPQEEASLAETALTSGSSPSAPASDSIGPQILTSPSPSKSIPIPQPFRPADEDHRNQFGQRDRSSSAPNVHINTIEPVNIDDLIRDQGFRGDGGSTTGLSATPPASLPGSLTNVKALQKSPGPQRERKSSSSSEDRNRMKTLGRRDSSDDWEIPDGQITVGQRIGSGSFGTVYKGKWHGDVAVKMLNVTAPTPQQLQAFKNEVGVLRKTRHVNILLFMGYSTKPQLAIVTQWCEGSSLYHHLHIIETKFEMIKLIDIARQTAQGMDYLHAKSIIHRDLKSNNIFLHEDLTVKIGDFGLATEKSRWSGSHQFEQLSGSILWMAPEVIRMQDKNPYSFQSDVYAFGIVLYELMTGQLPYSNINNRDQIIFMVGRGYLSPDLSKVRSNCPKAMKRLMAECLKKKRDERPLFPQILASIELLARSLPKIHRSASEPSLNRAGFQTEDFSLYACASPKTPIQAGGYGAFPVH

SMILES	DC50 (A375.10 cells, 24 h) [nM]	Emax [1] [%]	Emax [%]
Cn1nc(C2CCC(=O)NC2=O)c2ccc(C3CCN(CC(=O)N4CCC5(CC4)C[C@@H](n4cnc6ccc(Oc7c(F)ccc(NS(=O)(=O)N8CC[C@@H](F)C8)c7C#N)cc6c4=O)CO5)CC3)cc21 (stereo partly drawn) [Example 165, (3R)—N-[2-cyano-3-[3-[(3R)-8-[2-[4-[3-(2,6-dioxopiperidin-3-yl)-1-methylindazol-6-yl]piperidin-1-yl]acetyl]-1-oxa-8-azaspiro[4.5]decan-3-yl]-4-oxoquinazolin-6-yl]oxy-4-fluorophenyl]-3-fluoropyrrolidine-1-sulfonamide]	100	17.8	
CCN(C)S(=O)(=O)Nc1ccc(F)c(Oc2ccc3ncn([C@H]4CCC5(CCN(C(=O)CN6CCC(c7ccc8c(C9CCC(=O)NC9=O)nn(C)c8c7)CC6)CC5)C4)c(=O)c3c2)c1Cl (stereo partly drawn) [Example 166, 6-[2-chloro-3-[[ethyl(methyl)sulfamoyl]amino]-6-fluorophenoxy]-3-[(3S)-8-[2-[4-[3-(2,6-dioxopiperidin-3-yl)-1-methylindazol-6-yl]piperidin-1-yl]acetyl]-8-azaspiro[4.5]decan-3-yl]-4-oxoquinazoline]	34.5	23.5	
Cn1nc(C2CCC(=O)NC2=O)c2ccc(C3CCN(CC(=O)N4CCC5(CC4)C[C@@H](n4cnc6ccc(Oc7c(F)ccc(NS(=O)(=O)C8CCCC8)c7C#N)cc6c4=O)CO5)CC3)cc21 (stereo partly drawn) [Example 167, N-[2-cyano-3-[3-[(3R)-8-[2-[4-[3-(2,6-dioxopiperidin-3-yl)-1-methylindazol-6-yl]piperidin-1-yl]acetyl]-1-oxa-8-azaspiro[4.5]decan-3-yl]-4-oxoquinazolin-6-yl]oxy-4-fluorophenyl]cyclopentanesulfonamide]	42.6	16.5	
CC(C)S(=O)(=O)Nc1ccc(F)c(Oc2ccc3ncn([C@H]4COC5(CCN(C(=O)CN6CCC(c7ccc8c(C9CCC(=O)NC9=O)nn(C)c8c7)CC6)CC5)C4)c(=O)c3c2)c1C#N (stereo partly drawn) [Example 168, N-[2-cyano-3-[3-[(3R)-8-[2-[4-[3-(2,6-dioxopiperidin-3-yl)-1-methylindazol-6-yl]piperidin-1-yl]acetyl]-1-oxa-8-azaspiro[4.5]decan-3-yl]-4-oxoquinazolin-6-yl]oxy-4-fluorophenyl]propane-2-sulfonamide]	36.5	14.1	
CCN(C)S(=O)(=O)Nc1ccc(F)c(Oc2ccc3ncn([C@H]4COC5(CCN(C(=O)CN6CC(c7ccc8c(C9CCC(=O)NC9=O)nn(C)c8c7)C6)CC5)C4)c(=O)c3c2)c1C#N (stereo partly drawn) [Example 171, (3R)-3-[6-[2-cyano-3-[[ethyl(methyl)sulfamoyl]amino]-6-fluorophenoxy]-4-oxoquinazolin-3-yl]-8-[2-[3-[3-(2,6-dioxopiperidin-3-yl)-1-methylindazol-6-yl]azetidin-1-yl]acetyl]-1-oxa-8-azaspiro[4.5]decane]	30.7	7.11	
CCN(C)S(=O)(=O)Nc1ccc(F)c(Oc2ccc3ncn([C@H]4CCC5(CCN(C(=O)CC6(O)CCN(c7ccc8c(N9CCC(=O)NC9=O)nn(C)c8c7F)CC6)CC5)C4)c(=O)c3c2)c1C#N [Example 172, 6-[2-cyano-3-[[ethyl(methyl)sulfamoyl]amino]-6-fluorophenoxy]-3-[(3S)-8-[2-[1-[3-(2,4-dioxo-1,3-diazinan-1-yl)-7-fluoro-1-methylindazol-6-yl]-4-hydroxypiperidin-4-yl]acetyl]-8-azaspiro[4.5]decan-3-yl]-4-oxoquinazoline]	28.9	25.1	
CCN(C)S(=O)(=O)Nc1ccc(F)c(Oc2ccc3ncn([C@H]4COC5(CCN(C(=O)CC6(O)CCN(c7ccc8c(N9CCC(=O)NC9=O)nn(C)c8c7F)CC6)CC5)C4)c(=O)c3c2)c1C#N [Example 173, (3R)-3-[6-[2-cyano-3-[[ethyl(methyl)sulfamoyl]amino]-6-fluorophenoxy]-4-oxoquinazolin-3-yl]-8-[2-[1-[3-(2,4-dioxo-1,3-diazinan-1-yl)-7-fluoro-1-methylindazol-6-yl]-4-hydroxypiperidin-4-yl]acetyl]-1-oxa-8-azaspiro[4.5]decane]	192	46	
COC1CCN(S(=O)(=O)Nc2ccc(F)c(Oc3ccc4ncn([C@H]5COC6(CCN(C(=O)CC7(O)CCN(c8cc9c(cc8F)c(N8CCC(=O)NC8=O)nn9C)CC7)CC6)C5)c(=O)c4c3)c2C#N)C1 (stereo partly drawn) [Example 175, N-[2-cyano-3-[3-[(3R)-8-[2-[1-[3-(2,4-dioxo-1,3-diazinan-1-yl)-5-fluoro-1-methylindazol-6-yl]-4-hydroxypiperidin-4-yl]acetyl]-1-oxa-8-azaspiro[4.5]decan-3-yl]-4-oxoquinazolin-6-yl]oxy-4-fluorophenyl]-3-methoxypyrrolidine-1-sulfonamide]	31.2	31.1	
CO[C@H]1CCN(S(=O)(=O)Nc2ccc(F)c(Oc3ccc4ncn([C@H]5COC6(CCN(C(=O)CC7(O)CCN(c8cc9c(cc8F)c(N8CCC(=O)NC8=O)nn9C)CC7)CC6)C5)c(=O)c4c3)c2C#N)C1 [Example 176, (3S)—N-[2-cyano-3-[3-[(3R)-8-[2-[1-[3-(2,4-dioxo-1,3-diazinan-1-yl)-5-fluoro-1-methylindazol-6-yl]-4-hydroxypiperidin-4-yl]acetyl]-1-oxa-8-azaspiro[4.5]decan-3-yl]-4-oxoquinazolin-6-yl]oxy-4-fluorophenyl]-3-methoxypyrrolidine-1-sulfonamide]	20.5	24.8	
CO[C@@H]1CCN(S(=O)(=O)Nc2ccc(F)c(Oc3ccc4ncn([C@H]5COC6(CCN(C(=O)CC7(O)CCN(c8cc9c(cc8F)c(N8CCC(=O)NC8=O)nn9C)CC7)CC6)C5)c(=O)c4c3)c2C#N)C1 [Example 177, (3R)—N-[2-cyano-3-[3-[(3R)-8-[2-[1-[3-(2,4-dioxo-1,3-diazinan-1-yl)-5-fluoro-1-methylindazol-6-yl]-4-hydroxypiperidin-4-yl]acetyl]-1-oxa-8-azaspiro[4.5]decan-3-yl]-4-oxoquinazolin-6-yl]oxy-4-fluorophenyl]-3-methoxypyrrolidine-1-sulfonamide]	18	22.3	
CCN(C)S(=O)(=O)Nc1ccc(F)c(Oc2ccc3ncn(C4COC5(CCN(C(=O)CC6(O)CCN(c7cc8c(cc7F)c(N7CCC(=O)NC7=O)nn8C)CC6)CC5)C4)c(=O)c3c2N(C)C)c1C#N (stereo not shown) [Example 179, 3-[6-[2-cyano-3-[[ethyl(methyl)sulfamoyl]amino]-6-fluorophenoxy]-5-(dimethylamino)-4-oxoquinazolin-3-yl]-8-[2-[1-[3-(2,4-dioxo-1,3-diazinan-1-yl)-5-fluoro-1-methylindazol-6-yl]-4-hydroxypiperidin-4-yl]acetyl]-1-oxa-8-azaspiro[4.5]decane]	27.8	19.3	
CCN(C)S(=O)(=O)Nc1ccc(F)c(Oc2ccc3ncn([C@H]4COC5(CCN(C(=O)CC6CCN(c7cc8c(cc7F)c(N7CCC(=O)NC7=O)nn8C)CC6)CC5)C4)c(=O)c3c2)c1C#N [Example 180, (3R)-3-[6-[2-cyano-3-[[ethyl(methyl)sulfamoyl]amino]-6-fluorophenoxy]-4-oxoquinazolin-3-yl]-8-[2-[1-[3-(2,4-dioxo-1,3-diazinan-1-yl)-5-fluoro-1-methylindazol-6-yl]piperidin-4-yl]acetyl]-1-oxa-8-azaspiro[4.5]decane]	9.62		20.6
CCN(C)S(=O)(=O)Nc1ccc(F)c(Oc2ccc3ncn([C@H]4COC5(CCN(C(=O)CC6(O)CCN(c7cc8c(cc7F)c(N7CCC(=O)NC7=O)nn8C)CC6)CC5)C4)c(=O)c3c2N)c1C#N [Example 182, (3R)-3-[5-amino-6-[2-cyano-3-[[ethyl(methyl)sulfamoyl]amino]-6-fluorophenoxy]-4-oxoquinazolin-3-yl]-8-[2-[1-[3-(2,4-dioxo-1,3-diazinan-1-yl)-5-fluoro-1-methylindazol-6-yl]-4-hydroxypiperidin-4-yl]acetyl]-1-oxa-8-azaspiro[4.5]decane]	16.2	19.8	
CCN(C)S(=O)(=O)Nc1ccc(F)c(Oc2ccc3ncn([C@H]4COC5(CCN(C(=O)CC6(O)CCN(c7cc8c(cc7F)c(N7CCC(=O)NC7=O)nn8C)CC6)CC5)C4)c(=O)c3c2O)c1C#N [Example 186, (3R)-3-[6-[2-cyano-3-[[ethyl(methyl)sulfamoyl]amino]-6-fluorophenoxy]-5-hydroxy-4-oxoquinazolin-3-yl]-8-[2-[1-[3-(2,4-dioxo-1,3-diazinan-1-yl)-5-fluoro-1-methylindazol-6-yl]-4-hydroxypiperidin-4-yl]acetyl]-1-oxa-8-azaspiro[4.5]decane]	16.3	25.1	
Cn1nc(N2CCC(=O)NC2=O)c2cc(F)c(N3CCC(O)(CC(=O)N4CCC5(CC4)C[C@@H](n4cnc6ccc(Oc7c(F)ccc(NS(=O)(=O)N8CCCCC8)c7C#N)cc6c4=O)CO5)CC3)cc21 [Example 187, N-[2-cyano-3-[3-[(3R)-8-[2-[1-[3-(2,4-dioxo-1,3-diazinan-1-yl)-5-fluoro-1-methylindazol-6-yl]-4-hydroxypiperidin-4-yl]acetyl]-1-oxa-8-azaspiro[4.5]decan-3-yl]-4-oxoquinazolin-6-yl]oxy-4-fluorophenyl]piperidine-1-sulfonamide]	38.8	24.1	
Cn1nc(N2CCC(=O)NC2=O)c2cc(F)c(N3CCC(O)(CC(=O)N4CCC5(CC4)C[C@@H](n4cnc6ccc(Oc7c(F)ccc(NS(=O)(=O)C8CCCCC8)c7C#N)cc6c4=O)CO5)CC3)cc21 [Example 188, N-[2-cyano-3-[3-[(3R)-8-[2-[1-[3-(2,4-dioxo-1,3-diazinan-1-yl)-5-fluoro-1-methylindazol-6-yl]-4-hydroxypiperidin-4-yl]acetyl]-1-oxa-8-azaspiro[4.5]decan-3-yl]-4-oxoquinazolin-6-yl]oxy-4-fluorophenyl]cyclohexanesulfonamide]	40.6		27.3
CC(C)S(=O)(=O)Nc1ccc(F)c(Oc2ccc3ncn([C@H]4COC5(CCN(C(=O)CC6(O)CCN(c7cc8c(cc7F)c(N7CCC(=O)NC7=O)nn8C)CC6)CC5)C4)c(=O)c3c2)c1C#N [Example 189, N-[2-cyano-3-[3-[(3R)-8-[2-[1-[3-(2,4-dioxo-1,3-diazinan-1-yl)-5-fluoro-1-methylindazol-6-yl]-4-hydroxypiperidin-4-yl]acetyl]-1-oxa-8-azaspiro[4.5]decan-3-yl]-4-oxoquinazolin-6-yl]oxy-4-fluorophenyl]propane-2-sulfonamide]	23.5	24.5	
